Results as given in ChEMBL document CHEMBL1146319, “Design, synthesis, and in vivo evaluation of oxamniquine methacrylate and acrylamide prodrugs” (2007).

Experiments:
Type in all cases: functional
Schistosoma mansoni [1] = assay: Antiparasitic activity against Schistosoma mansoni BH cercareae infected Swiss mouse assessed as average number of eggs at 3 stage after 10 days by oogram test
Schistosoma mansoni [2] = assay: Antiparasitic activity against Schistosoma mansoni BH cercareae infected Swiss mouse assessed as average number of eggs at 1 stage after 20 days by oogram test
Schistosoma mansoni [3] = assay: Antiparasitic activity against Schistosoma mansoni BH cercareae infected Swiss mouse assessed as average number of eggs at 2 stage after 20 days by oogram test
Schistosoma mansoni [4] = assay: Antiparasitic activity against Schistosoma mansoni BH cercareae infected Swiss mouse assessed as average number of eggs at 3 stage after 20 days by oogram test
Schistosoma mansoni [5] = assay: Antiparasitic activity against Schistosoma mansoni BH cercareae infected Swiss mouse assessed as average number of eggs at 1 stage after 10 days by oogram test
Schistosoma mansoni [6] = assay: Antiparasitic activity against Schistosoma mansoni BH cercareae infected Swiss mouse assessed as average number of eggs at 2 stage after 10 days by oogram test
Schistosoma mansoni [7] = assay: Antiparasitic activity against Schistosoma mansoni BH cercareae infected Swiss mouse assessed as total number of worms after 10 days by mesenteric veins perfusion technique
Schistosoma mansoni [8] = assay: Antiparasitic activity against Schistosoma mansoni BH cercareae infected Swiss mouse as total numbers of worms after 20 days by mesenteric veins perfusion technique

SMILES | Activity (Schistosoma mansoni [1]) | Activity (Schistosoma mansoni [2]) | Activity (Schistosoma mansoni [3]) | Activity (Schistosoma mansoni [4]) | Activity (Schistosoma mansoni [5]) | Activity (Schistosoma mansoni [6]) | Activity (Schistosoma mansoni [7]) | Activity (Schistosoma mansoni [8])
C=C(C)C(=O)OCc1cc2c(cc1[N+](=O)[O-])NC(CNC(C)C)CC2 (stereo unspecified) [OXAMNIQUINE ACRYLAMIDE] | 0.22 | 0 | 0.09 | 0.27 | 0 | 0.11 | 48 | 39
CC(C)NCC1CCc2cc(CO)c([N+](=O)[O-])cc2N1 (stereo unspecified) [OXAMNIQUINE] | 0 | 0 | 0 | 0 | 0 | 0 | 3 | 13
